Reference: patent US6537670B1, “Bis(alkyleneoxybenzophenone) ultraviolet light absorbers” (Cytec Technology Corp., priority 2000, dated 2003)

How the values were obtained:
[1] = Volatility of UV absorbers: Thermogravimetric Analysis (TGA) T-10% values; type: physicochemical; settings: for T-10% (TGA, temperature required for 10% of the material to volatilize): Thermogravimetric Analysis
Excerpt: One approach that has been taken to reduce the loss of absorbers from polymeric substrates has been to increase their molecular weight, either by using an absorber with attached high molecular weight groups, or by adding a group which will bind two or more absorbing nuclei in the same molecule, thus increasing molecular weight. U.S. Pat. No. 4,278,589 provides an example of the former approach, and describes benzotriazoles with large groups attached at the 3- and 5-positions. Of the latter approach, benzophenones, benzotriazoles and other molecules have been dimerized to reduce volatility. U.S. Pat. Nos. 5,108,835 and 4,948,666 describe articles with capstock layers stabilized by 2-hydroxyphenylbenzotriazoles which are bridged by various groups. One structure encompassed by the description is a 2-hydroxyphenylbenzotriazole bridged by a methylene group in the 3-position. These materials have relatively low volatility, as measured by the high temperature required for 10% of the materials to volatilize during Thermogravimetric Analysis. This temperature, known as the TGA T-10% value, is approximately 365° C. for the methylenebis{(5-tert-octyl-2-hydroxyphenyl)benzotriazole} known commercially as LA-31, Mixxim BB-100 or Tinuvin 360 (supplied by Asahi Denka, Fairmount Chemical and Ciba Specialty Chemicals, respectively), versus a TGA T-10% value of 245° C. for the non-dimerized (5-tert-octyl-2-hydroxyphenyl)benzotriazole known commercially as CYASORB® UV-5411. Also described have been 2,4-dihydroxybenzophenones which are dimerized by attachment through the 4-oxygen by an ether bond to two carbons of an aliphatic group. Compounds of this type have been described in U.S. Pat. Nos. 3,580,927 and 3,666,713 and CZ Appl. 135,115, JP Sho 47-48888, JP Sho 44-26456 and GB 1, 296,240. Capstock articles stabilized by some of these compounds, and a method for preparing the same are described in U.S. Pat. Nos. 5,445,872 and 5,306,456. Descriptions of benzotriazoles and benzophenones bridged by attachment of other groups may be found in U.S. Pat. Nos. 5,589,529 and 4,859,726 (for benzotriazoles) and JP Sho 57-12643 (for benzophenones). Many of the compounds described above, while solving the problem of volatility, have other limitations, including low solubility and high initial color when processed into the plastic substrate.
Volatility of UV Absorbers
Thermogravimetric Analysis (TGA) T-10% Values

[2] = Weathering resistance of polycarbonate plaques, 12-Month Florida Data; settings: for % Weathering Resistance: 0.35% additive in Lexan 121 PC, 12-Month Florida Data, [1-YI(additive)YI of Blank] × 100
Procedure: The performance of the additives was evaluated in comparison to the control (no stabilizer) by compounding into polycarbonate and studying the properties of the compounded plaques. Polycarbonate plaques were prepared by: (1) dry blending the additives at 0.35 weight % with GE Lexan 121-112 polycarbonate (2) extruding the blend in a Haake torque rheometer base using a 0.75 inch 25:1 single screw extruder −4 zone, single pass, at 50-65 RPM speed, with zone 1, zone 2, zone 3, and zone 4 temperatures at 265, 265, 270 and 275° C., respectively, (3) pulling through a water bath, (4) drying, (5) pelletizing, (6) redrying at 120° C. for 4-48 hours in a forced air oven, (7) injection molding in an Arburg ‘Allrounder’ hydraulic injection molder (2×2.5 0.100″ plaques). Temperatures used were as follows: nozzle, 275° C., nozzle side, 280° C., middle, 275° C., feed, 266° C., mold, 95° C. The plaques were irradiated in a Xenon Arc Weatherometer as described by ASTM G-26 Standard using Test Method B with alternate exposure to light and darkness and an intermittent exposure to water spray maintaining an atmosphere temperature of 63±3° C. and a relative humidity of 30±5% (Miami, Fla. conditions). Color (YI) was determined with a Macbeth Color Eye […] under Lab conditions with illuminate C, 2° observer, specular component excluded, and UV component included. Hydrolytic testing was performed by heating plaques with water at 120° C. for 6 hours in an All American Electric Pressure Sterilizer, Model No. 25×, measuring YI before and after treatment.
% Weathering Resistance of Plaques (0.35% Additive in Lexan® 121 PC)

[3] = Capstock weathering: Delta YI after xenon-arc weatherometer exposure; settings: 7% in Capstock PC-Lexan 105
Procedure: The performance of the compounds was evaluated in comparison to the control (no stabilizer) in a polycarbonate thin film laminated to an unstabilized polycarbonate plaque. The films were prepared by (1) dry blending the additives at 7 wt. % with Lexan 105 virgin flake and 0.1% Mark 2112 phosphite, (2) extruding the blend in a Haake torque rheometer base equipped with a 0.75 inch 25:1 single mixing screw extruder −4 zone, single pass at 55-65 rpm speed, with zone 1, zone 2, zone 3, and zone 4 temperatures at 246, 265, 295, and 304° C., respectively, (3) pulling through a water bath, (4) drying, (5) pelletizing, (6) redrying at 120° C. for 4-48 hours in a forced air oven, and (7) compression molding from compounded pellets into 2 mil films at 300° C. using a 30 second dwell hold without pressure, and a 30-second dwell hold with 35 kpsi pressure. […] The laminated sample plaques were exposed in the xenon-arc weatherometer as determined by ASTM G-26 Standard using Test Method B with alternate exposure to light and darkness and an intermittent exposure to water spray maintaining an atmosphere temperature of 63±3° C. and a relative humidity of 30±5% (Miami, Fla. conditions). Color (YI) was determined with a Macbeth Color Eye Colorimeter under Lab conditions with illuminate C, 2° observer, specular component excluded, and UV component included. […]

[4] = Solubility of compounds in organic solvents; settings: 25° C.

Compound	T-10% (TGA, temperature required for 10% of the material to volatilize) [1] [°C]	% Weathering Resistance [2] [%]	Volatility (in words) ([1]; TGA, compared with non-dimerized counterpart)	Stability imparted to the polycarbonate system (in words) ([2]; 0.35% in Lexan 121 PC)	Stability imparted (in words) [3]	Solubility in 2-Butanone [4] [g/100 g solvent]	Solubility in Toluene [4] [g/100 g solvent]	Solubility characteristics (in words) ([4]; organic solvents)	TGA T-10% value [1]
CC(C)(c1ccccc1)c1cc(-n2nc3ccccc3n2)c(O)c(C(C)(C)c2ccccc2)c1 [Compound C, 2-(3′,5′-bis(α,α-dimethylbenzyl)-2′hydroxyphenyl)benzotriazole]	312	71	–	–	–	–	–	–	–
O=C(OCCOc1ccc(C(=O)c2ccccc2)c(O)c1)OCCOc1ccc(C(=O)c2ccccc2)c(O)c1 [Compound D, {2-(3′-hydroxy-4′-benzoylphenoxy)ethyl}carbonate]	350	71	lower volatility than its non-dimerized counterpart	excellent stability	excellent stability	2.69	1.26	excellent solubility characteristics	–
O=C(c1ccccc1)c1ccc(OCCCCCCOc2ccc(C(=O)c3ccccc3)c(O)c2)cc1O [Compound E, 1,6-bis(3′hydroxy-4′-benzoylphenoxy)hexane]	357	69	–	–	–	0.37	0.52	–	–
CC(C)(C)CC(C)(C)c1cc(Cc2cc(C(C)(C)CC(C)(C)C)cc(-n3nc4ccccc4n3)c2O)c(O)c(-n2nc3ccccc3n2)c1 [Compound F]	–	59	–	–	–	–	–	–	approximately 365 °C
O=C(c1ccccc1)c1ccc(OCCO)cc1O [Compound B, 2-hydroxy-4-(hydroxyethoxy)benzophenone]	257	–	–	–	–	–	–	–	–
CC(C)(C)CC(C)(C)c1ccc(O)c(-n2nc3ccccc3n2)c1 [Compound A, 2-(2′-hydroxy-5′-(1,1,3,3-tetramethylbutyl)phenyl)benzotriazole]	245	–	–	–	–	–	–	–	245 °C
